From US20130281512A1, “AGENTS FOR TREATING DISORDERS INVOLVING MODULATION OF RYANODINE RECEPTORS” (LES LABORATOIRES SERVIER, priority 2012, published 2013)

Test system: mdx mice
Assay: Muscle function in mouse muscular dystrophy model (mdx): voluntary wheel activity, EDL specific force
Type: in vivo
Description: Voluntary activity on wheel, body weight, and average water consumption were measured in the first 3 weeks. Specific muscle force was measured after 4 weeks of treatment, at the end of the study.
Distance traveled (Km/day) over a 24 hr period was analyzed as an index of improved functional activity (see, DMD_M.2.1.002 SOP at http://www.treat-nmd.eu/). At the conclusion of the study, Extensor digitorum longus (EDL) muscle was isolated for muscle force analysis as further described hereinbelow. Blood was collected from each mouse by retro-orbital bleeds at the end of the study (after end of dark cycle—about 7 AM) to assess drug plasma concentrations. Experiments were blinded.
At the end of the study, EDL muscle was dissected from hind limbs for isometric force analysis using the 407A Muscle Test System from Aurora Scientific (Aurora, Ontario, Canada). A 6-0 suture were tied to each tendon and the entire EDL muscle, tendon to tendon, was transferred to a Ragnoti bath of O2/CO2 (95%/5%) bubbled Tyrode solution (in mM: NaCl 121, KCl 5.0, CaCl2 1.8, MgCl2, NaH2PO4, NaHCO3 24, and glucose 5.5). Using the sutures, one tendon was tied vertically to a stainless steel hook connected to a force transducer The other sutured tendon was clamped down into a moving arm on the Aurora system. The EDL muscle was stimulated to contract using an electrical field between two platinum electrodes. At the start of each experiment, muscle length was adjusted to yield the maximum force. Force-frequency relationships were determined by triggering contraction using incremental stimulation frequencies (5-250 Hz for 200 ms at suprathreshold voltage). Between stimulations the muscle was allowed to rest ˜3 min. At the end of the force measurement, the length (Lo) of the EDL muscle while sutured in the Aurora system was measured excluding the tendons. The EDL muscle was then removed from the system and weighed after clipping the end tendons and sutures off. The EDL muscle was then frozen in liquid nitrogen. The cross-sectional area (mm^2) of the EDL muscle was calculated by dividing the EDL muscle weight by the EDL muscle length and the mammalian muscle density constant of […] (Yamada, T., et al. Arthritis and rheumatism 60:3280-3289). To determine EDL specific force (kN/m^2), the absolute tetanic force was divided by the EDL muscle cross-sectional area.
For statistical analysis of distance traveled, change from baseline was calculated for each day by subtracting the baseline value (defined as the mean of the two measurements obtained on Day −1 and Day −2) from each post dose assessment. Change from baseline was then statistically analyzed with a repeated measures analysis of variance model with fixed effects for treatment, day and treatment by day interaction. Baseline was included as a covariate and mouse was included as a random effect. The most appropriate covariance structure was determined through investigation of the Akaike's Information Criterion (AIC) and Bayesian Information Criterion (BIC). The covariance structures investigated were autoregressive, compound symmetry, unstructured, and toeplitz. The optimal covariance structure selected was compound symmetry. From the model, point estimates and associated 95% confidence intervals (CI) for the difference in change from baseline between each ARM210 treated mice group and vehicle treated group (for both mdx and C57BL/6 mice) were obtained for each day, each week, and the entire assessment period from Day 1 to Day 19. As this study is exploratory in nature, no adjustments in multiple comparisons were made.
Specific force was analyzed using a repeated measures analysis of variance model with fixed effects for treatment, frequency and treatment by frequency interaction and mouse as a random effect. Similar to the analysis described above, the optimal covariance structure was chosen from among autoregressive, compound symmetry, unstructured, and toeplitz. […]

[1] = mdx and WT mice, drinking water

Compound: COc1ccc2c(c1)CN(Cc1ccc(C(=O)O)cc1)CCS2 [Compound 1, 4-((7-Methoxy-2,3-dihydrobenzo[f][1,4]thiazepin-4(5H)-yl)methyl)benzoic acid]
- body weight [1]: did not affect
- water consumption [1]: No dose-dependent effects
- specific muscle force (EDL) (mdx mice, 50 mg/kg/d, stimulation frequencies of 150 Hz and above, P<0.05): statistically significant increase
- specific force of EDL muscle (mdx mice, 5, 10 and 50 mg/kg/d, 4 weeks): increased specific force in mdx muscle dose-dependently
- distance traveled on voluntary wheel (mdx mice, 10 and 50 mg/kg/d (target dose) sodium salt in drinking water, day 1 to day 19, vs vehicle, P<0.001): significantly longer distances
- time to treatment effect on wheel activity after treatment initiation (mdx mice, drinking water): 2 to 3 days
